In ChEMBL document CHEMBL5465560, “Selectivity Literature for EUbOPEN Chemogenomic Library” (2024):

Columns and labels:
[1] = target: T1, Mitogen-activated protein kinase kinase kinase kinase 3 (Homo sapiens) (UniProt Q8IVH8); test: Selectivity interaction (KinomeScan (DiscoverX)) EUB0001079a MAP4K3; settings: at 1 µM
T1 sequence (whole entry): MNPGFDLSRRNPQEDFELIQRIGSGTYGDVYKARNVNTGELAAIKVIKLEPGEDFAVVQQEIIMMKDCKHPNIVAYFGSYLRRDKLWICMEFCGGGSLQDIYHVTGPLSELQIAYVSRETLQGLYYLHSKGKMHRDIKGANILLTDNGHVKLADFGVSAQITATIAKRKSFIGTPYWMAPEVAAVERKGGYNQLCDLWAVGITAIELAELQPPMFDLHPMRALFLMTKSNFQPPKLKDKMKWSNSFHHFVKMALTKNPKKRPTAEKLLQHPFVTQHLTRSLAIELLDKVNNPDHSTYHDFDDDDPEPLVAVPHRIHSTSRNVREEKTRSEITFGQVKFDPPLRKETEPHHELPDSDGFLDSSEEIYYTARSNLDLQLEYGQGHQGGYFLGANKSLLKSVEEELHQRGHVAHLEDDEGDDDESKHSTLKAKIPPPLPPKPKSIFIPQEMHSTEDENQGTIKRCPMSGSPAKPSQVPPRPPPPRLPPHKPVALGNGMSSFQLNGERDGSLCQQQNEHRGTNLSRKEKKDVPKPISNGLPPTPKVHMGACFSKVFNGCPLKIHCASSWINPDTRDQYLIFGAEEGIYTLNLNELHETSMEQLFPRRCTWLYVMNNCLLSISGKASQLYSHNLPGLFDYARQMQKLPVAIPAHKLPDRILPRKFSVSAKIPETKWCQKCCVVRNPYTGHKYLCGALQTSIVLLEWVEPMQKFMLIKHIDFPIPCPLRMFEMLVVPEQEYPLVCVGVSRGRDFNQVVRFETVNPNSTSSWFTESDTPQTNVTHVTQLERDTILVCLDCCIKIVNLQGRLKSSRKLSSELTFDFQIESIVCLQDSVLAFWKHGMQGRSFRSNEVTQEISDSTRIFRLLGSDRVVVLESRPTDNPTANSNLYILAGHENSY

[2] = target: Calcium/calmodulin-dependent protein kinase type 1D (Homo sapiens) (UniProt Q8IU85); test: Selectivity interaction (KinomeScan (DiscoverX)) EUB0001079a CAMK1D; settings: at 1 µM
Calcium/calmodulin-dependent protein kinase type 1D (Homo sapiens), sequence (Q8IU85 whole entry, looked up): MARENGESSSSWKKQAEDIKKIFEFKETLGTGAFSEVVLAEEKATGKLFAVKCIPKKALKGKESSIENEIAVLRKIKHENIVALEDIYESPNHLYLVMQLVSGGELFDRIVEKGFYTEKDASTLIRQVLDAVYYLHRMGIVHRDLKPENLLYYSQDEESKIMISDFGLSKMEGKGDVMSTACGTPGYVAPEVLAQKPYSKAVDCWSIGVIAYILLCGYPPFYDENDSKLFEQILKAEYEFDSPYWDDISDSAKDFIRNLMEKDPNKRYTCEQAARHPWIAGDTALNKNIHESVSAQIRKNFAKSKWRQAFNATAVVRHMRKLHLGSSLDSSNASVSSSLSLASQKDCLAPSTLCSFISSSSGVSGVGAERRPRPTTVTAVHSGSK

[3] = target: Tyrosine-protein kinase JAK1 (Homo sapiens, UniProt P23458); test: Selectivity interaction (KinomeScan (DiscoverX)) EUB0000045b JAK1; settings: at 1 µM
Tyrosine-protein kinase JAK1, sequence (P23458 whole entry): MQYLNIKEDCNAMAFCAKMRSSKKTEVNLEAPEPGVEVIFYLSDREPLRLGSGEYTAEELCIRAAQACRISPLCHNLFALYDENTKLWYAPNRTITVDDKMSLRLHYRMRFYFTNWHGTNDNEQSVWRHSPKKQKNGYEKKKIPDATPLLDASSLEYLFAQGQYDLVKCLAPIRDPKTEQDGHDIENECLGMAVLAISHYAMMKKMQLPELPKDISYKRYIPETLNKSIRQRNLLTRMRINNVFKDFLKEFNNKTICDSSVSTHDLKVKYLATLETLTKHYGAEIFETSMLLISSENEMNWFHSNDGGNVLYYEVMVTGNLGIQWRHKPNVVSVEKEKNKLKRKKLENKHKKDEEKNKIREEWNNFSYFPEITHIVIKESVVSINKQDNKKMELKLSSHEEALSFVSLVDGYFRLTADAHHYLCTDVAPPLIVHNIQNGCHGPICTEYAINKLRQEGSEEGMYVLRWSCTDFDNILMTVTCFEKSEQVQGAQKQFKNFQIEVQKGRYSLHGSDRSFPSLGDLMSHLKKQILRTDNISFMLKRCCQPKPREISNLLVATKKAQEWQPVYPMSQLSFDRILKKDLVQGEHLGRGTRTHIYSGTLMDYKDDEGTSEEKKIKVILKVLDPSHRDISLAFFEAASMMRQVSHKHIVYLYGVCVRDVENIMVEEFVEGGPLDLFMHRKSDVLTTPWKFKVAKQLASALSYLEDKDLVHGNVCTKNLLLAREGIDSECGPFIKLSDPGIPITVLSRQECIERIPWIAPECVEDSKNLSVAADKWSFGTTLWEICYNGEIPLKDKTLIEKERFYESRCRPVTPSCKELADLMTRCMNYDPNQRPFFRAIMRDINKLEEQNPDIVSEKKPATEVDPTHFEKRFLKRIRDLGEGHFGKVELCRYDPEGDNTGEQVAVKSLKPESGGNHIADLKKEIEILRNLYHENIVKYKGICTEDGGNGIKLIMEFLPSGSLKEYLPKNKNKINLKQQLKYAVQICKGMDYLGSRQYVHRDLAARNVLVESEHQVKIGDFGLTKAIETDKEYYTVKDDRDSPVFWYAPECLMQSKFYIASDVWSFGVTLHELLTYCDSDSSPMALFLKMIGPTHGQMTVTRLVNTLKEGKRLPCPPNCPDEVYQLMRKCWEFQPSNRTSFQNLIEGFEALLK

[4] = target: T2, 3-phosphoinositide-dependent protein kinase 1 (Homo sapiens) (UniProt O15530); test: Selectivity interaction (KinomeScan (DiscoverX)) EUB0000229b PDPK1; settings: at 10 µM
T2 sequence (whole entry): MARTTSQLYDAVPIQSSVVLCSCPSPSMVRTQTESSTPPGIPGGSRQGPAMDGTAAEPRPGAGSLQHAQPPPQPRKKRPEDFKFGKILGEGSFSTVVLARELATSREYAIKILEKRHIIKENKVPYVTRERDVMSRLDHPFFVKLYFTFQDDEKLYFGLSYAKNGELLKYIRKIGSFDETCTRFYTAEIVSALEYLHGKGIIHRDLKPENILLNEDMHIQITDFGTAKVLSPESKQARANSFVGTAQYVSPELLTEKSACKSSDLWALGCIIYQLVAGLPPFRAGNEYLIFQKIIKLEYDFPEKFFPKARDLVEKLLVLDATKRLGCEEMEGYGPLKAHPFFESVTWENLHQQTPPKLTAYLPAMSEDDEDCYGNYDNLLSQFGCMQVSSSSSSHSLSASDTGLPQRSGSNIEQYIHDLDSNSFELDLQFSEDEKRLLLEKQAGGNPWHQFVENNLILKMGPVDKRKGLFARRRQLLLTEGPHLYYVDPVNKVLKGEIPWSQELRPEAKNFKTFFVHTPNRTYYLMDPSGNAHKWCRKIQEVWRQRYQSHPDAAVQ

[5] = target: Receptor tyrosine-protein kinase erbB-4 (Homo sapiens, UniProt Q15303); test: Selectivity interaction (KinomeScan (DiscoverX)) EUB0000666a ERBB4; settings: at 10 µM
Receptor tyrosine-protein kinase erbB-4, sequence (Q15303 whole entry): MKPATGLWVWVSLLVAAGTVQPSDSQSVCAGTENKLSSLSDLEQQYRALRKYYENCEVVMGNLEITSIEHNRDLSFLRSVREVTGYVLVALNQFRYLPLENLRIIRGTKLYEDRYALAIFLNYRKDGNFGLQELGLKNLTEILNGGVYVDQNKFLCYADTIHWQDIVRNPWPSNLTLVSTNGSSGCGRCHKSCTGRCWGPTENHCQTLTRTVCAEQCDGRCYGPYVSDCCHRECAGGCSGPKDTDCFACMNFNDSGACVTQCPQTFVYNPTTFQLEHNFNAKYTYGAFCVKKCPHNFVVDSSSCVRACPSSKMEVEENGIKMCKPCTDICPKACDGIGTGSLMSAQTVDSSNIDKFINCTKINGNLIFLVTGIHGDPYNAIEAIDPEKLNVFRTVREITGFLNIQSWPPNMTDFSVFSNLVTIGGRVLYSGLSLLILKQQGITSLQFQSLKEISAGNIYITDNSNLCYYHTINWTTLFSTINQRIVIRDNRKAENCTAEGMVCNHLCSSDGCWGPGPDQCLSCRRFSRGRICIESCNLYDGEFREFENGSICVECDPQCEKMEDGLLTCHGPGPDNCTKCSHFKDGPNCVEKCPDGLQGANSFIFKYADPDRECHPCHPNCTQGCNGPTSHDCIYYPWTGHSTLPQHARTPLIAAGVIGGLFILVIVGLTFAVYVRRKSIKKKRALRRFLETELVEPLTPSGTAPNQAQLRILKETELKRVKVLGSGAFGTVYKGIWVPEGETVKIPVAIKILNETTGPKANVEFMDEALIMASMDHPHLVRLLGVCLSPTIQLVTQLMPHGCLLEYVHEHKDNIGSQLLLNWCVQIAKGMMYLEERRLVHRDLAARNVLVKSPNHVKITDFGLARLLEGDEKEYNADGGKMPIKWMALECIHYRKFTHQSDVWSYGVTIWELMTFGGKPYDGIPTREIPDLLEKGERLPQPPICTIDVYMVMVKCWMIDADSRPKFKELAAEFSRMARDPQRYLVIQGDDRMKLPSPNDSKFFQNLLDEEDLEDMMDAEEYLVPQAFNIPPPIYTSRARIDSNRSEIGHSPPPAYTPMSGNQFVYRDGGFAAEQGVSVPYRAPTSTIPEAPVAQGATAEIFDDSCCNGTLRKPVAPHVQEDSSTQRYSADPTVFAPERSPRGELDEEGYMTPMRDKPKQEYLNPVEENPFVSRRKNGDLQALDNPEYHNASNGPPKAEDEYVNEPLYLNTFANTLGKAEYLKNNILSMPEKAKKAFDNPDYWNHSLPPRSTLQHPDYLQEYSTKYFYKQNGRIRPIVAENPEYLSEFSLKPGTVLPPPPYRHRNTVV

[6] = target: T3, Mitogen-activated protein kinase kinase kinase 6 (Homo sapiens) (UniProt O95382); test: Selectivity interaction (KinomeScan (DiscoverX)) EUB0000092b MAP3K6; settings: at 10 µM
T3 sequence (whole entry): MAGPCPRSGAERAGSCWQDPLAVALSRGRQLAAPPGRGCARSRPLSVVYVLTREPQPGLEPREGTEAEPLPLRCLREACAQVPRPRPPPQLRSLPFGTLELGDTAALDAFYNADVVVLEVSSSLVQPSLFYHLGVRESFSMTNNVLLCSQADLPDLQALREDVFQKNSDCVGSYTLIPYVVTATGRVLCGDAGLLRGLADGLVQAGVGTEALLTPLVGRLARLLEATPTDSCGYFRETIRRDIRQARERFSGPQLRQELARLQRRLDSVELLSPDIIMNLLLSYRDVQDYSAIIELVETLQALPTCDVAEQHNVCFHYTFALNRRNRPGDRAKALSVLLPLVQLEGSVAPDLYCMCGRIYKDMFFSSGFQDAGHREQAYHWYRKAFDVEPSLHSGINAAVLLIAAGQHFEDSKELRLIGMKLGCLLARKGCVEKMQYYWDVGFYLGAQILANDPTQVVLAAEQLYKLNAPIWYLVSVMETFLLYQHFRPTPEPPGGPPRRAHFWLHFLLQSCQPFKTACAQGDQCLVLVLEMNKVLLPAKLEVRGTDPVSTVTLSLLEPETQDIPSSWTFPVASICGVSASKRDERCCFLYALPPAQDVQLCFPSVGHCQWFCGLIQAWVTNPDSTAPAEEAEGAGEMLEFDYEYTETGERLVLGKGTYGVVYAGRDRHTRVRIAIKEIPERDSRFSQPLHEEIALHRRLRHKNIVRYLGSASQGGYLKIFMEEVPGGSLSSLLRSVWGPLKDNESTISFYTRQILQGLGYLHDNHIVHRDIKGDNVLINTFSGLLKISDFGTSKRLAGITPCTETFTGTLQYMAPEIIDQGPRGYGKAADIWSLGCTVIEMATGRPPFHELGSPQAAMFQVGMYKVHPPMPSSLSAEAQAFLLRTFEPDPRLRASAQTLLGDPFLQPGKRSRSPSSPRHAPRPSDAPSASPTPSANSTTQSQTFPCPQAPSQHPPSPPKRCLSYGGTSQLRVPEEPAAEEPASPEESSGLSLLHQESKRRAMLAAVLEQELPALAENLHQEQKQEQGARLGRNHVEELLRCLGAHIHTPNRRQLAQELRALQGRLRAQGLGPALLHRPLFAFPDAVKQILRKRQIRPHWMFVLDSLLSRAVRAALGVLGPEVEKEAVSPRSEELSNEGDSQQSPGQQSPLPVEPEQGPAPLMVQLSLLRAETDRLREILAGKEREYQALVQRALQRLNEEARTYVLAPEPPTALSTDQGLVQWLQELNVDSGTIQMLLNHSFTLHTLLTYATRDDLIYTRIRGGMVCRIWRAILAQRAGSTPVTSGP

**Q.** Which results are given for `Nc1cnc(N2CCc3cc(S(=O)(=O)Nc4c(F)cc(Cl)cc4F)cc(N4CCCC4=O)c32)nc1` [TP-020n]?
**A.** % of control [1]: 93%; % of control [2]: 97%

**Q.** With `C=CC(=O)Nc1cc(-n2c(=O)ccc3cnc4ccc(-c5ccc(NS(C)(=O)=O)cc5)cc4c32)ccc1C` as the compound, how does the % of control [3] read?
**A.** The % of control was 99%.

**Q.** With `COc1cc(N(C)c2ccnc3ccc(C(F)(F)F)cc23)cc(OC)c1OC` as the compound, how does the % binding [4] read?
**A.** The % binding was 98%.

**Q.** With `O=C(NOC[C@H](O)CO)c1ccc(F)c(F)c1Nc1ccc(I)cc1F` as the compound, how does the % of control [5] read?
**A.** The % of control was 100%.

**Q.** Which % of control [6] does the source give for `CCC(=O)N1CCN(c2ccc(-n3c(=O)ccc4cnc5ccc(-c6cnc7ccccc7c6)cc5c43)cc2C(F)(F)F)CC1` here?
**A.** The % of control was 100%.
